Here are results for 22 molecules from patent US20230203043A1, “NOVEL IMIDAZOPYRAZINE DERIVATIVES” (Hoffmann-La Roche Inc., priority 2020, published 2023).

Counter-ions that a name gives are not always drawn. Like-named read-outs stand apart in the source and are kept apart here.

The experiment relates to Acinetobacter baumannii ATCC17961. Briefly: Antimicrobial susceptibility testing: 90% growth inhibitory concentration (IC90) determination in Iso-Sensitest broth, OD600 growth. It counts as cell-based. As for the experimental part:
Antimicrobial Susceptibility Testing:
90% Growth Inhibitory Concentration (IC90) Determination
The in vitro antimicrobial activity of the compounds was determined according to the following procedure:
The assay used a 10-points Iso-Sensitest broth medium to measure quantitatively the in vitro activity of the compounds against Acinetobacter baumannii ATCC17961 or ATCC17968.
Stock compounds in DMSO were serially twofold diluted (e.g. range from 50 to 0.097 μM final concentration) in 384 wells microtiter plates and inoculated with 49 μl the bacterial suspension in Iso-Sensitest medium to have a final cell concentration of ˜5×10^(5) CFU/ml in a final volume/well of 50 ul/well. Microtiter plates were incubated at 35±2° C.
Bacterial cell growth was determined with the measurement of optical density at λ=600 nm each 20 minutes over a time course of 16 h. Growth inhibition was calculated during the logarithmic growth of the bacterial cells with determination of the concentration inhibiting 50% (IC50) and 90% (IC90) of the growth.
Table 7 provides the 90% growth inhibitory concentrations (IC90) in micromoles per liter of the compounds of present invention obtained against the strain Acinetobacter baumannii ATCC17961 and/or ATCC17968.

[1] abbreviates: Acinetobacter baumannii, ATCC17961, 16 h, strain ATCC 17961, OD600 growth over 16 h, read-out: A. baumannii ATCC 17961 IC90.
The mark [2] stands for this setting: Acinetobacter baumannii, ATCC17961, 16 h, read-out: A. baumannii ATCC 17961 IC90 (uM), strain ATCC 17961, OD600 growth over 16 h.

For the molecule `CCc1cc(Nc2nccn3c(-c4cn(CC#N)nc4C(F)(F)F)cnc23)ccc1C(=O)NCCCNC(=O)[C@H]1C[C@@H](N)C1` [Example 482, N-(3-((1s,3s)-3-aminocyclobutane-1-carboxamido)propyl)-4-((3-(1-(cyanomethyl)-3-(trifluoromethyl)-1H-pyrazol-4-yl)imidazo[1,2-a]pyrazin-8-yl)amino)-2-ethylbenzamide formate], under setting [1], the IC90 was 0.174 µM.

Consider `C[C@@H](NC(=O)c1ccc(Nc2nccn3c(-c4cn(CC#N)nc4C(F)(F)F)cnc23)cc1Cl)C(=O)NC1CC(N)C1` (stereo partly drawn) [Example 683, N-[(1R)-2-[(3-aminocyclobutyl)amino]-1-methyl-2-oxo-ethyl]-2-chloro-4-[[3-[1-(cyanomethyl)-3-(trifluoromethyl)pyrazol-4-yl]imidazo[1,2-a]pyrazin-8-yl]amino]benzamide formate], for which, under setting [2], the IC90 worked out at 0.336 µM.

On to `N#CCn1cc(-c2cnc3c(Nc4ccc(C(=O)N5CCN(C(=O)CN)CC5)c(Cl)c4)nccn23)c(C(F)(F)F)n1` [Example 132, 2-[4-[8-[4-[4-(2-aminoacetyl)piperazine-1-carbonyl]-3-chloroanilino]imidazo[1,2-a]pyrazin-3-yl]-3-(trifluoromethyl)pyrazol-1-yl]acetonitrile], for which, under setting [1], the IC90 turned out to be 0.136 µM.

Take `CCc1cc(Nc2nccn3c(-c4cn(CCF)nc4C(F)(F)F)cnc23)ccc1C(=O)NCCOCCCN` [Example 610, N-(2-(3-aminopropoxy)ethyl)-2-ethyl-4-((3-(1-(2-fluoroethyl)-3-(trifluoromethyl)-1H-pyrazol-4-yl)imidazo [1,2-a]pyrazin-8-yl)amino)benzamide formate]: the IC90 under setting [2] amounted to 0.099 µM.

Consider `CCc1cc(Nc2nccn3c(-c4cn(CC#N)nc4C(F)(F)F)cnc23)ccc1C(=O)NCCNC(=O)CCN` [Example 566, N-(2-(3-aminopropanamido)ethyl)-4-((3-(1-(cyanomethyl)-3-(trifluoromethyl)-1H-pyrazol-4-yl)imidazo[1,2-a]pyrazin-8-yl)amino)-2-ethylbenzamide formate], for which, under setting [2], the IC90 came to 0.477 µM.

For the molecule `CCc1cc(Nc2nccn3c(-c4cn(CC(F)F)nc4C(F)F)cnc23)ccc1C(=O)N1CCN(C(=O)C2(O)CCNCC2)CC1` [Example 764, (4-(4-((3-(1-(2,2-difluoroethyl)-3-(difluoromethyl)-1H-pyrazol-4-yl)imidazo[1,2-a]pyrazin-8-yl)amino)-2-ethylbenzoyl)piperazin-1-yl)(4-hydroxypiperidin-4-yl)methanone], the IC90 under setting [1] was 0.809 µM.

Take `NC1CCN(C(=O)N2CCN(C(=O)c3ccc(Nc4nccn5c(-c6c[nH]nc6C(F)(F)F)cnc45)cc3Cl)CC2)CC1` [Example 285, [4-(4-aminopiperidine-1-carbonyl)piperazin-1-yl]-[2-chloro-4-[[3-[3-(trifluoromethyl)-1H-pyrazol-4-yl]imidazo[1,2-a]pyrazin-8-yl]amino]phenyl] methanone formate]: the IC90 under setting [2] is 0.185 µM.

For `CCc1cc(Nc2nccn3c(-c4cn(CC(F)F)nc4C(F)(F)F)cnc23)ccc1C(=O)NCCOCCN1CCOCC1` [Example 717, 4-((3-(1-(2,2-difluoroethyl)-3-(trifluoromethyl)-1H-pyrazol-4-yl)imidazo[1,2-a]pyrazin-8-yl)amino)-2-ethyl-N-(2-(2-morpholinoethoxy)ethyl)benzamide formate], under setting [2], the IC90 was determined as 0.434 µM.

For the molecule `C#CCn1cc(-c2cnc3c(Nc4ccc(C(=O)N5CCN(C(=O)C6CCNCC6)CC5)c(CC)c4)nccn23)c(C(F)(F)F)n1` [Example 5, [2-ethyl-4-[[3-[1-prop-2-ynyl-3-(trifluoromethyl)pyrazol-4-yl]imidazo[1,2-a]pyrazin-8-yl]amino]phenyl]-[4-(piperidine-4-carbonyl)piperazin-1-yl]methanone], the IC90 under setting [1] came to 0.262 µM.

Consider `N#CCn1cc(-c2cnc3c(Nc4ccc(C(=O)NOCCN)c(Cl)c4)nccn23)c(C(F)(F)F)n1` [Example 201, N-(2-aminoethoxy)-2-chloro-4-[[3-[1-(cyanomethyl)-3-(trifluoromethyl)pyrazol-4-yl]imidazo[1,2-a]pyrazin-8-yl]amino]benzamide formate], for which the IC90 under setting [2] was determined as 0.486 µM.

`C#CC(C)n1cc(-c2cnc3c(Nc4ccc(C(=O)N5CCN(C(=O)[C@H]6C[C@H](O)CN6)CC5)c(CC)c4)nccn23)c(C(F)F)n1` (stereo in doubt) [Example 787, (4-(4-((3-(1-(but-3-yn-2-yl)-3-(difluoromethyl)-1H-pyrazol-4-yl)imidazo[1,2-a]pyrazin-8-yl)amino)-2-ethylbenzoyl)piperazin-1-yl)((2R,4S)-4-hydroxypyrrolidin-2-yl)methanone (mixture of epimers)]: the IC90 under setting [1] is 1.57 µM.

As for `CCNC(=O)c1ccc(Nc2nccn3c(-c4cn(CCF)nc4C(F)(F)F)cnc23)cc1CC` [Example 114, N,2-diethyl-4-[[3-[1-(2-fluoroethyl)-3-(trifluoromethyl)pyrazol-4-yl]imidazo[1,2-a]pyrazin-8-yl]amino]benzamide], the IC90 under setting [1] came out at 0.329 µM.

Turning to `O=C(c1ccc(Nc2nccn3c(-c4c[nH]nc4C(F)(F)F)cnc23)cc1Cl)N1CCN(C(=O)[C@@H]2CCNC2)CC1` [Example 197, [2-chloro-4-[[3-[3-(trifluoromethyl)-1H-pyrazol-4-yl]imidazo[1,2-a]pyrazin-8-yl]amino]phenyl]-[4-[(3R)-pyrrolidine-3-carbonyl]piperazin-1-yl]methanone], the IC90 under setting [1] came out at 0.16 µM.

As for `Cc1cc(Nc2nccn3c(-c4cn(CC#N)nc4C(F)(F)F)cnc23)ccc1C(=O)N1CCN(C(=O)N[C@H]2CNC[C@@H]2O)CC1` [Example 376, 4-[4-[[3-[1-(cyanomethyl)-3-(trifluoromethyl)pyrazol-4-yl]imidazo[1,2-a]pyrazin-8-yl]amino]-2-methylbenzoyl]-N-[(3S,4S)-4-hydroxypyrrolidin-3-yl]piperazine-1-carboxamide formate], the IC90 under setting [2] is 0.43 µM.

Regarding `Cc1cc(Nc2nccn3c(-c4cn(C)nc4C(F)(F)F)cnc23)ccc1C(=O)NCCNC(=O)[C@@H]1C[C@@H](O)CN1` [Example 456, formic acid; (2S,4R)-4-hydroxy-N-[2-[[2-methyl-4-[[3-[1-methyl-3-(trifluoromethyl)pyrazol-4-yl]imidazo[1,2-a]pyrazin-8-yl]amino]benzoyl]amino]ethyl]pyrrolidine-2-carboxamide], the concentration for an effect of 90% (IC90) under setting [2] was found to be 2.74 µM.

As to `CCc1cc(Nc2nccn3c(-c4c[nH]nc4C(F)(F)F)cnc23)ccc1C(=O)NCCCNC(=O)CNC(=O)C(F)(F)F` [Example 708, 2-ethyl-N-(3-(2-(2,2,2-trifluoroacetamido)acetamido)propyl)-4-((3-(3-(trifluoromethyl)-1H-pyrazol-4-yl)imidazo [1,2-a]pyrazin-8-yl)amino)benzamide], the IC90 under setting [1] is 0.397 µM.

For the molecule `CCc1cc(Nc2nccn3c(-c4cn(CCCC#N)nc4C(F)(F)F)cnc23)ccc1C(=O)NC` [Example 343, 4-[[3-[1-(3-cyanopropyl)-3-(trifluoromethyl)pyrazol-4-yl]imidazo[1,2-a]pyrazin-8-yl]amino]-2-ethyl-N-methylbenzamide], the IC90 under setting [1] is 0.546 µM.

For `N#CCCn1cc(-c2cnc3c(Nc4ccc(C(=O)N5CCN(C(=O)NC6CNC6)CC5)c(Cl)c4)nccn23)c(C(F)(F)F)n1` [Example 246, N-(azetidin-3-yl)-4-[2-chloro-4-[[3-[1-(2-cyanoethyl)-3-(trifluoromethyl)pyrazol-4-yl]imidazo[1,2-a]pyrazin-8-yl]amino]benzoyl] piperazine-1-carboxamide formate], where the note is “strain ATCC 17961, OD600 growth over 16 h, read-out: A. baumannii ATCC 17961 IC90”, the IC90 was found to be 0.533 µM.

In the case of `CCc1cc(Nc2nccn3c(-c4cn(CC#N)nc4C(F)(F)F)cnc23)ccc1C(=O)NCCNC(=O)CN` [Example 620, N-(2-(2-aminoacetamido)ethyl)-4-((3-(1-(cyanomethyl)-3-(trifluoromethyl)-1H-pyrazol-4-yl)imidazo[1,2-a]pyrazin-8-yl)amino)-2-ethylbenzamide formate], the 90% effect concentration (IC90) under setting [2] was 0.139 µM.

With `C[C@H](N)C(=O)N1CCN(C(=O)c2ccc(Nc3nccn4c(-c5c[nH]nc5C(F)(F)F)cnc34)cc2Cl)CC1` [Example 206, (2S)-2-amino-1-[4-[2-chloro-4-[[3-[3-(trifluoromethyl)-1H-pyrazol-4-yl]imidazo[1,2-a]pyrazin-8-yl]amino]benzoyl]piperazin-1-yl]propan-1-one], the IC90 under setting [1] came out at 0.169 µM.

Consider `CCc1cc(Nc2nccn3c(-c4c[nH]nc4C(F)(F)F)cnc23)ccc1C(=O)NCCCNC(=O)[C@@H]1CCCN1` [Example 634, (S)-N-(3-(2-ethyl-4-((3-(3-(trifluoromethyl)-1H-pyrazol-4-yl)imidazo[1,2-a]pyrazin-8-yl)amino)benzamido)propyl) pyrrolidine-2-carboxamide], for which the IC90 under setting [1] worked out at 0.218 µM.

As for `CCc1cc(Nc2nccn3c(-c4cn(CC(C)(C)CO)nc4C(F)(F)F)cnc23)ccc1C(=O)NCCOCCN` [Example 306, N-[2-(2-aminoethoxy)ethyl]-2-ethyl-4-[[3-[1-(3-hydroxy-2,2-dimethylpropyl)-3-(trifluoromethyl)pyrazol-4-yl]imidazo[1,2-a]pyrazin-8-yl]amino]benzamide formate], the IC90 under setting [2] is 0.483 µM.
